What all share (assay type): functional, cell-based
One test deals with NCI-H460. Kind of test: Antiproliferative activity against human NCI-H460 cells assessed as reduction in cell viability measured after 24 hrs by MTT assay. To be noted: NCI-H460, 24 h. On the technique in general: Tetrazolium assays rely on reduction of a dye to a coloured formazan, in cell work by metabolically active cells.
A further test has as its system Raji. Kind of test: Antiproliferative activity against human Raji cells assessed as reduction in cell viability measured after 24 hrs by MTT assay.
In a further test the test system is MCF7. As to the kind of experiment: Antiproliferative activity against human MCF7 cells assessed as reduction in cell viability measured after 24 hrs by MTT assay. As to conditions: MCF7, 24 h.
For another test, the system named is HeLa. As to the kind of experiment: Antiproliferative activity against human HeLa cells assessed as reduction in cell viability measured after 24 hrs by MTT assay.
The subject of another test is A2780S. Kind of test: Antiproliferative activity against human A2780S cells assessed as reduction in cell viability measured after 24 hrs by MTT assay.

Each structure is given as a SMILES string. Some results are limits rather than exact numbers.

As usually defined, the IC50 is the concentration needed to halve the response being measured.

Consider `c1ccc(Oc2cccc(CNc3cc4c(cn3)[nH]c3ccccc34)c2)cc1`, for which the IC50 stood at 62 nM with NCI-H460; 31 nM in the test on Raji; 49 nM in the test on MCF7; 51 nM in the test on HeLa; 45 nM with A2780S.

As to `c1cc2ccc3cccc4c(CNc5cc6c(cn5)[nH]c5ccccc56)cc(c1)c2c34`, the IC50 in the test on NCI-H460, in the test with Raji, in the test with MCF7, in the test on HeLa and with A2780S was over 500 nM in each case.

As to `CC(=O)Nc1ccccc1Oc1cccc(CNc2cc3c(cn2)[nH]c2ccccc23)c1`, the IC50 with NCI-H460, in the test with Raji, in the test on MCF7, with HeLa and in the test with A2780S was over 500 nM throughout.

As for `c1ccc2c(c1)[nH]c1cnc(NCc3ccsc3)cc12`, the IC50 in the test on NCI-H460 stood at 87 nM; in the test with Raji it was 43 nM; with MCF7, 73 nM; in the test on HeLa, 93 nM; with A2780S, 63 nM.

For the molecule `CCOc1cccc(CNc2cc3c(cn2)[nH]c2ccccc23)c1`, the IC50 in the test on NCI-H460, with Raji, in the test on MCF7, in the test with HeLa and in the test on A2780S was over 500 nM in each case.

Take `CCCNc1cc2c(cn1)[nH]c1ccccc12`: the IC50 in the test on NCI-H460, in the test with Raji, in the test with MCF7, in the test on HeLa and in the test with A2780S was over 500 nM throughout.

As for `N#Cc1ccccc1Oc1cccc(CNc2cc3c(cn2)[nH]c2ccccc23)c1`, the IC50 with NCI-H460, in the test with Raji, in the test with MCF7, in the test with HeLa and in the test with A2780S was over 500 nM in each case.

With `Cc1cccc(Oc2cccc(CNc3cc4c(cn3)[nH]c3ccccc34)c2)c1`, the IC50 with NCI-H460 is 44 nM; in the test on Raji it was 29 nM; with MCF7, 47 nM; in the test on HeLa it was 41 nM; in the test with A2780S, 44 nM.

With `c1ccc(Oc2ccc(Oc3cccc(CNc4cc5c(cn4)[nH]c4ccccc45)c3)cc2)cc1`, the IC50 in the test with NCI-H460, with Raji, in the test with MCF7, in the test with HeLa and in the test with A2780S was over 500 nM throughout.

Take `CCCCNc1cc2c(cn1)[nH]c1ccccc12`: the IC50 with NCI-H460 is 340 nM; with Raji, 220 nM; in the test with MCF7, 513 nM; in the test with HeLa, over 500 nM; with A2780S, 175 nM.

Regarding `c1ccc2c(CNc3cc4c(cn3)[nH]c3ccccc34)c[nH]c2c1`, the IC50 in the test on NCI-H460, in the test with Raji, in the test on MCF7, in the test with HeLa and in the test on A2780S was over 500 nM throughout.

For `COc1ccccc1Oc1cccc(CNc2cc3c(cn2)[nH]c2ccccc23)c1`, the IC50 with NCI-H460 is over 500 nM; with Raji, 500 nM; in the test on MCF7, over 500 nM; in the test on HeLa it was over 500 nM; in the test on A2780S it was over 500 nM.

Take `c1csc(CNc2cc3c(cn2)[nH]c2ccccc23)c1`: the IC50 with NCI-H460 is over 500 nM; with Raji, 257 nM; with MCF7, 424 nM; in the test with HeLa, 412 nM; with A2780S, over 500 nM.

On to `CC(C)=CCOc1cccc(CNc2cc3c(cn2)[nH]c2ccccc23)c1`, for which the IC50 with NCI-H460, in the test on Raji, with MCF7, in the test with HeLa and with A2780S was over 500 nM each time.

For `COc1ccc(COc2cccc(CNc3cc4c(cn3)[nH]c3ccccc34)c2)cc1`, the IC50 in the test with NCI-H460, in the test on Raji, in the test with MCF7, in the test on HeLa and with A2780S was over 500 nM in each case.

For `COc1ccc(Oc2cccc(CNc3cc4c(cn3)[nH]c3ccccc34)c2)cc1OC`, the IC50 in the test on NCI-H460 is over 500 nM; with Raji, 383 nM; with MCF7, 432 nM; in the test on HeLa, 266 nM; in the test on A2780S, 264 nM.

As for `c1cc(CNc2cc3c(cn2)[nH]c2ccccc23)cc(Oc2ccc3c(c2)OCCO3)c1`, the IC50 with NCI-H460, in the test on Raji, with MCF7, in the test on HeLa and in the test on A2780S was over 500 nM each time.

In the case of `CC(C)CNc1cc2c(cn1)[nH]c1ccccc12`, the IC50 with NCI-H460, in the test on Raji, with MCF7, in the test with HeLa and in the test with A2780S was over 500 nM in each case.

With `CC(C)=CCNc1cc2c(cn1)[nH]c1ccccc12`, the IC50 with NCI-H460 is over 500 nM; in the test on Raji it was 382 nM; in the test on MCF7 it was over 500 nM; in the test on HeLa, over 500 nM; in the test on A2780S, over 500 nM.

As to `Clc1ccccc1Oc1cccc(CNc2cc3c(cn2)[nH]c2ccccc23)c1`, the IC50 is 74 nM in the test on NCI-H460; 59 nM with Raji; 19 nM with MCF7; 63 nM with HeLa; 43 nM in the test with A2780S.

In the case of `N#Cc1ccc(Oc2cccc(CNc3cc4c(cn3)[nH]c3ccccc34)c2)cc1`, the IC50 is 48 nM in the test on NCI-H460; 37 nM with Raji; 47 nM in the test on MCF7; 46 nM in the test with HeLa; 60 nM with A2780S.

On to `c1ccc(COc2cccc(CNc3cc4c(cn3)[nH]c3ccccc34)c2)cc1`, for which the IC50 in the test with NCI-H460, with Raji, in the test on MCF7, with HeLa and with A2780S was over 500 nM throughout.

For the molecule `CCCCOc1cccc(CNc2cc3c(cn2)[nH]c2ccccc23)c1`, the IC50 in the test with NCI-H460, in the test with Raji, with MCF7, in the test with HeLa and in the test on A2780S was over 500 nM throughout.

Regarding `COc1cc2c(c(OC)c1OC)-c1ccc(OC)c(=O)cc1[C@@H](NC(C)=O)CC2` [COLCHICINE], the figures for the IC50 in the test on NCI-H460, with Raji and in the test with HeLa were 12 nM, 18 nM and 16 nM, respectively.

On to `c1ccc(-c2ccc(CNc3cc4c(cn3)[nH]c3ccccc34)cc2)cc1`, for which the half-maximal inhibitory concentration (IC50) in the test on NCI-H460, in the test with Raji, in the test on MCF7, with HeLa and in the test with A2780S was over 500 nM in each case.

Turning to `c1ccc2cc(CNc3cc4c(cn3)[nH]c3ccccc34)ccc2c1`, the IC50 in the test with NCI-H460, in the test on Raji, with MCF7, in the test on HeLa and with A2780S was over 500 nM each time.

Regarding `c1ccc2c(c1)[nH]c1cnc(NCc3ccoc3)cc12`, the IC50 with NCI-H460 was 342 nM; with Raji, 73 nM; in the test with MCF7, 71 nM; in the test on HeLa, 66 nM; in the test with A2780S, 93 nM.

With `Fc1cccc(Oc2cccc(CNc3cc4c(cn3)[nH]c3ccccc34)c2)c1`, the IC50 came to 50 nM in the test on NCI-H460; 42 nM in the test on Raji; 59 nM in the test with MCF7; 71 nM with HeLa; 41 nM in the test with A2780S.

For `c1cc(CNc2cc3c(cn2)[nH]c2ccccc23)cc(OC2CCCC2)c1`, the IC50 in the test on NCI-H460, in the test on Raji, with MCF7, in the test on HeLa and with A2780S was over 500 nM each time.

Turning to `c1cc(CNc2cc3c(cn2)[nH]c2ccccc23)cc(OCC2CC2)c1`, the IC50 in the test on NCI-H460, with Raji, in the test on MCF7, in the test on HeLa and in the test with A2780S was over 500 nM in each case.

Consider `CC(=O)Nc1ccc(Oc2cccc(CNc3cc4c(cn3)[nH]c3ccccc34)c2)cc1`, for which the 50% inhibitory concentration (IC50) in the test on NCI-H460 came to 31 nM; in the test on Raji, 15 nM; with MCF7 it was 27 nM; in the test with HeLa, 67 nM; in the test on A2780S, 11 nM.

For the molecule `CC(C)CCOc1cccc(CNc2cc3c(cn2)[nH]c2ccccc23)c1`, the IC50 in the test on NCI-H460, with Raji, in the test on MCF7, in the test on HeLa and with A2780S was over 500 nM in each case.

For the molecule `CC(=O)Nc1cccc(Oc2cccc(CNc3cc4c(cn3)[nH]c3ccccc34)c2)c1`, the IC50 in the test with NCI-H460 is 74 nM; in the test on Raji, 45 nM; in the test on MCF7, 76 nM; in the test with HeLa it was 83 nM; in the test with A2780S, 58 nM.

For `COc1ccc(Oc2cccc(CNc3cc4c(cn3)[nH]c3ccccc34)c2)cc1`, the IC50 in the test on NCI-H460 turned out to be 67 nM; in the test with Raji it was 20 nM; with MCF7, 33 nM; with HeLa, 19 nM; in the test on A2780S, 12 nM.

`c1ccc2c(c1)[nH]c1cnc(NC3CCCC3)cc12`: the concentration for half-maximal inhibition (IC50) is over 500 nM in the test with NCI-H460; 242 nM in the test with Raji; 397 nM in the test on MCF7; over 500 nM in the test on HeLa; 92 nM in the test on A2780S.

For the molecule `CSc1ccc(Oc2cccc(CNc3cc4c(cn3)[nH]c3ccccc34)c2)cc1`, the IC50 in the test with NCI-H460, with Raji, in the test with MCF7, in the test on HeLa and with A2780S was over 500 nM in each case.

For `FC(F)(F)c1ccc(Oc2cccc(CNc3cc4c(cn3)[nH]c3ccccc34)c2)cc1`, the IC50 in the test with NCI-H460 is 47 nM; in the test on Raji it was 54 nM; in the test with MCF7 it was 68 nM; in the test on HeLa, 81 nM; with A2780S it was 85 nM.

For `COCCOc1cccc(CNc2cc3c(cn2)[nH]c2ccccc23)c1`, the IC50 in the test with NCI-H460, in the test on Raji, with MCF7, in the test on HeLa and in the test with A2780S was over 500 nM in each case.

The record behind these values is ChEMBL document CHEMBL5042535, “Structure-Based Design and Synthesis of N-Substituted 3-Amino-β-Carboline Derivatives as Potent αβ-Tubulin Degradation Agents” (J Med Chem, 2022).
